Experimental data: US20100222332A1, “PYRAZOLO-PYRAZINES DERIVATIVES USED AS G PROTEIN INHIBITORS” (Ipsen Pharma S.A.S., priority 2007, published 2010)
Structures can show the parent of a compound that is named as a salt. Where two headings read alike, the source gives them in different places.

What was measured:
[1] = test system: LNCaP (human prostate cancer cells); experiment: Anti-proliferative activity on LNCaP cell line (WST1 colorimetric test); assay type: cell-based; conditions: treated for 96 hours, read-out: IC50 on the cell proliferation of the LNCaP lines
Description: (§1) By way of example, the effect of a treatment on three human cell lines DU145, LNCaP and A2058 with the compounds of the examples described previously will be studied. The cell lines DU145 and LNCaP (human prostate cancer cells) and A2058 (human melanoma cancer cells) were acquired from the American Tissue Culture Collection (Rockville, Md., USA). The cells placed in 80 μl of Dulbecco's Modified Eagle medium (Gibco-Brl, Cergy-Pontoise, France) completed with 10% foetal calf serum inactivated by heating (Gibco-Brl, Cergy-Pontoise, France), 50000 units/l of penicillin and 50 mg/l streptomycin (Gibco-Brl, Cergy-Pontoise, France), and 2 mM of glutamin (Gibco-Brl, Cergy-Pontoise, France) were seeded on a 96-well plate on day 0. The cells were treated on day 1 for 96 hours with increasing concentrations of each of the compounds to be tested up to 10 μM. At the end of this period, the quantification of the cell proliferation is evaluated by a colorimetric test based on the cleavage of the tetrazolium salt WST1 by mitochondrial dehydrogenases in the viable cells leading to the formation of formazan (Boehringer Mannheim, Meylan, France). These tests are carried out in duplicate with 8 determinations per tested concentration. For each compound to be tested, the values included in the linear part of the sigmoid were retained for linear regression analysis and used in order to estimate the inhibitory concentration IC50. The products are solubilized in dimethylsulphoxide (DMSO) at 10^−2 M and finally used in culture with 0.1% DMSO.

[2] = test system: DU145 (human prostate cancer cells); experiment: Anti-proliferative activity on DU145 cell line (WST1 colorimetric test); assay type: cell-based; conditions: DU-145, treated for 96 hours, read-out: IC50 on the cell proliferation of the DU145 lines
Description: as §1

[3] = test system: A2058 (human melanoma cancer cells); experiment: Anti-proliferative activity on A2058 cell line (WST1 colorimetric test); assay type: cell-based; conditions: treated for 96 hours, read-out: IC50 on the cell proliferation of the A2058 lines
Description: as §1

IC50 [1]	IC50 ([2]; unit inferred)	IC50 [3]	Structure (SMILES)	melting point	other results
≤ 1 µM			N[C@@H](CSSC[C@H](N)C(=O)N1CCn2nc(-c3ccccc3)cc2C1CC1CCCCC1)C(=O)N1CCn2nc(-c3ccccc3)cc2C1CC1CCCCC1 (mixture of isomers) [Example 12, (2R)-3-({(2R)-2-amino-3-[(4RS)-4-(cyclohexylmethyl)-2-phenyl-6,7-dihydropyrazolo[1,5-a]pyrazin-5(4H)-yl]-3-oxopropyl}dithio)-1-[(4RS)-4-(cyclohexylmethyl)-2-phenyl-6,7-dihydropyrazolo[1,5-a]pyrazin-5(4H)-yl]-1-oxopropan-2-amine hydrochloride]		IC50 [2]: ≤ 10 µM; IC50 ([3]; bound given in mM): ≤ 0.01 mM
≤ 1 µM	≤ 15 µM		N[C@@H](CSSC[C@H](N)C(=O)N1CCn2nc(-c3ccccc3)cc2C1CCc1ccccc1)C(=O)N1CCn2nc(-c3ccccc3)cc2C1CCc1ccccc1 (mixture of isomers) [Example 13, (2R)-3-({(2R)-2-amino-3-oxo-3-[(4RS)-2-phenyl-4-(2-phenylethyl)-6,7-dihydropyrazolo[1,5-a]pyrazin-5(4H)-yl]propyl}dithio)-1-oxo-1-[(4RS)-2-phenyl-4-(2-phenylethyl)-6,7-dihydropyrazolo[1,5-a]pyrazin-5(4H)-yl]propan-2-amine hydrochloride]		IC50 ([3]; bound given in mM): ≤ 0.01 mM
≤ 10 µM		≤ 0.03 mM	N[C@@H](CSSC[C@H](N)C(=O)N1CCn2nc(-c3ccncc3)cc2C1CCc1ccccc1)C(=O)N1CCn2nc(-c3ccncc3)cc2C1CCc1ccccc1 (mixture of isomers) [Example 14, (2R)-3-({(2R)-2-amino-3-oxo-3-[(4RS)-4-(2-phenylethyl)-2-pyridin-4-yl-6,7-dihydropyrazolo[1,5-a]pyrazin-5(4H)-yl]propyl}dithio)-1-oxo-1-[(4RS)-4-(2-phenylethyl)-2-pyridin-4-yl-6,7-dihydropyrazolo[1,5-a]pyrazin-5(4H)-yl]propan-2-amine hydrochloride]		
≤ 10 µM		≤ 0.02 mM	N[C@@H](CSSC[C@H](N)C(=O)N1CCn2nc(-c3cccnc3)cc2C1CCc1ccccc1)C(=O)N1CCn2nc(-c3cccnc3)cc2C1CCc1ccccc1 (mixture of isomers) [Example 15, (2R)-3-({(2R)-2-amino-3-oxo-3-[(4RS)-4-(2-phenylethyl)-2-pyridin-3-yl-6,7-dihydropyrazolo[1,5-a]pyrazin-5(4H)-yl]propyl}dithio)-1-oxo-1-[(4RS)-4-(2-phenylethyl)-2-pyridin-3-yl-6,7-dihydropyrazolo[1,5-a]pyrazin-5(4H)-yl]propan-2-amine hydrochloride]		
≤ 10 µM		≤ 0.03 mM	N[C@@H](CSSC[C@H](N)C(=O)N1CCn2nc(-c3ccc4c(c3)OCO4)cc2C1CCc1ccccc1)C(=O)N1CCn2nc(-c3ccc4c(c3)OCO4)cc2C1CCc1ccccc1 (mixture of isomers) [Example 16, (2R)-3-({(2R)-2-amino-3-[(4RS)-2-(1,3-benzodioxol-5-yl)-4-(2-phenylethyl)-6,7-dihydropyrazolo[1,5-a]pyrazin-5(4H)-yl]-3-oxopropyl}dithio)-1-[(4RS)-2-(1,3-benzodioxol-5-yl)-4-(2-phenylethyl)-6,7-dihydropyrazolo[1,5-a]pyrazin-5(4H)-yl]-1-oxopropan-2-amine hydrochloride]		IC50 [2]: ≤ 20 µM
≤ 10 µM	≤ 15 µM	≤ 0.02 mM	COc1cc(-c2cc3n(n2)CCN(C(=O)[C@@H](N)CSSC[C@H](N)C(=O)N2CCn4nc(-c5cc(OC)c(OC)c(OC)c5)cc4C2CCc2ccccc2)C3CCc2ccccc2)cc(OC)c1OC (mixture of isomers) [Example 17, (2R)-3-({(2R)-2-amino-3-oxo-3-[(4RS)-4-(2-phenylethyl)-2-(3,4,5-trimethoxyphenyl)-6,7-dihydropyrazolo[1,5-a]pyrazin-5(4H)-yl]propyl}dithio)-1-oxo-1-[(4RS)-4-(2-phenylethyl)-2-(3,4,5-trimethoxyphenyl)-6,7-dihydropyrazolo[1,5-a]pyrazin-5(4H)-yl]propan-2-amine hydrochloride]		
≤ 5 µM	≤ 15 µM	≤ 0.02 mM	N[C@@H](CSSC[C@H](N)C(=O)N1CCn2nc(-c3cccs3)cc2C1CCc1ccccc1)C(=O)N1CCn2nc(-c3cccs3)cc2C1CCc1ccccc1 (mixture of isomers) [Example 18, (2R)-3-({(2R)-2-amino-3-oxo-3-[(4RS)-4-(2-phenylethyl)-2-(2-thienyl)-6,7-dihydropyrazolo[1,5-a]pyrazin-5(4H)-yl]propyl}dithio)-1-oxo-1-[(4RS)-4-(2-phenylethyl)-2-(2-thienyl)-6,7-dihydropyrazolo[1,5-a]pyrazin-5(4H)-yl]propan-2-amine hydrochloride]		
≤ 5 µM	≤ 15 µM	≤ 0.02 mM	N[C@@H](CSSC[C@H](N)C(=O)N1CCn2nc(-c3ccco3)cc2C1CCc1ccccc1)C(=O)N1CCn2nc(-c3ccco3)cc2C1CCc1ccccc1 (mixture of isomers) [Example 19, (2R)-3-({(2R)-2-amino-3-[(4RS)-2-(2-furyl)-4-(2-phenylethyl)-6,7-dihydropyrazolo[1,5-a]pyrazin-5(4H)-yl]-3-oxopropyl}dithio)-1-[(4RS)-2-(2-furyl)-4-(2-phenylethyl)-6,7-dihydropyrazolo[1,5-a]pyrazin-5(4H)-yl]-1-oxopropan-2-amine hydrochloride]		
			CCCCC1c2cc(-c3ccccc3)nn2CCN1C(=O)[C@H](CSSC[C@H](NC(=O)OC(C)(C)C)C(=O)N1CCn2nc(-c3ccccc3)cc2C1CCCC)NC(=O)OC(C)(C)C (mixture of isomers) [Example 10, tert-butyl {(1R)-1-[({(2R)-2-[(tert-butoxycarbonyl)amino]-3-[(4RS)-4-butyl-2-phenyl-6,7-dihydropyrazolo[1,5-a]pyrazin-5(4H)-yl]-3-oxopropyl}dithio)methyl]-2-[(4RS)-4-butyl-2-phenyl-6,7-dihydropyrazolo[1,5-a]pyrazin-5(4H)-yl]-2-oxoethyl}carbamate]	95 to 102 °C	
			CC(C)(C)OC(=O)N[C@@H](CSSC[C@H](NC(=O)OC(C)(C)C)C(=O)N1CCCn2nc(-c3ccccc3)cc2C1CC1CCCCC1)C(=O)N1CCCn2nc(-c3ccccc3)cc2C1CC1CCCCC1 (mixture of isomers) [Example 27, tert-butyl {(1R)-1-[({(2R)-2-[(tert-butoxycarbonyl)amino]-3-[(4RS)-4-(cyclohexylmethyl)-2-phenyl-7,8-dihydro-4H-pyrazolo[1,5-a][1,4]diazepin-5(6H)-yl]-3-oxopropyl}dithio)methyl]-2-[(4RS)-4-(cyclohexylmethyl)-2-phenyl-7,8-dihydro-4H-pyrazolo[1,5-a][1,4]diazepin-5(6H)-yl]-2-oxoethyl}carbamate]	105 to 116 °C	
			CC(C)(C)OC(=O)N[C@@H](CSSC[C@H](NC(=O)OC(C)(C)C)C(=O)N1CCn2nc(-c3ccccc3)cc2[C@@H]1CC1CCCCC1)C(=O)N1CCn2nc(-c3ccccc3)cc2[C@@H]1CC1CCCCC1 [Example 23, tert-butyl {(1R)-1-[({(2R)-2-[(tert-butoxycarbonyl)amino]-3-[(4S)-4-(cyclohexylmethyl)-2-phenyl-6,7-dihydropyrazolo[1,5-a]pyrazin-5(4H)-yl]-3-oxopropyl}dithio)methyl]-2-[(4S)-4-(cyclohexylmethyl)-2-phenyl-6,7-dihydropyrazolo[1,5-a]pyrazin-5(4H)-yl]-2-oxoethyl}carbamate]	106 to 108 °C	
			CC(C)(C)OC(=O)N[C@@H](CSSC[C@H](NC(=O)OC(C)(C)C)C(=O)N1CCn2nc(-c3ccccc3)cc2[C@H]1CC1CCCCC1)C(=O)N1CCn2nc(-c3ccccc3)cc2[C@H]1CC1CCCCC1 [Example 25, tert-butyl {(1R)-1-[({(2R)-2-[(tert-butoxycarbonyl)amino]-3-[(4R)-4-(cyclohexylmethyl)-2-phenyl-6,7-dihydropyrazolo[1,5-a]pyrazin-5(4H)-yl]-3-oxopropyl}dithio)methyl]-2-[(4R)-4-(cyclohexylmethyl)-2-phenyl-6,7-dihydropyrazolo[1,5-a]pyrazin-5(4H)-yl]-2-oxoethyl}carbamate]	114 to 139 °C	

Structure (SMILES)	IC50 [1]	IC50 ([2]; unit inferred)	IC50 [3]	melting point	other results
CC(C)(C)OC(=O)N[C@@H](CSSC[C@H](NC(=O)OC(C)(C)C)C(=O)N1CCn2nc(-c3ccncc3)cc2C1CCc1ccccc1)C(=O)N1CCn2nc(-c3ccncc3)cc2C1CCc1ccccc1 (mixture of isomers) [Example 3, tert-butyl {(1R)-1-[({(2R)-2-[(tert-butoxycarbonyl)amino]-3-oxo-3-[(4RS)-4-(2-phenylethyl)-2-pyridin-4-yl-6,7-dihydropyrazolo[1,5-a]pyrazin-5(4H)-yl]propyl}dithio)methyl]-2-oxo-2-[(4RS)-4-(2-phenylethyl)-2-pyridin-4-yl-6,7-dihydropyrazolo[1,5-a]pyrazin-5(4H)-yl]ethyl}carbamate]	≤ 10 µM				
